Measurements reported in patent publication US8192962B2, “Processes for detecting toxic substances” (Daikin Industries, Ltd., priority 2001, dated 2012).

System: Mitochondria-located protein genes
Experiment: DNA chip mRNA expression in yeast, mitochondria-located protein genes (Table 2)
Assay type: cell-based, Saccharomyces cerevisiae S288C
Conditions: cells incubated two hours with the chemical substance
Summary of the method: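 Whole-genome yeast DNA chip hybridization (65° C., >12 h) of Cy-labeled cDNA from S288C cells exposed 2 h at 25° C. to a sub-lethal toxicant dose in YPD; value is intensity relative to chemical-free control.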

Na2As [(1)] was tested, and the “The level of expressed mRNA in the presence of chemical substance/The level of expressed mRNA in the absence of chemical substance” value (yeast gene YJR121W) was 0.9, the “The level of expressed mRNA in the presence of chemical substance/The level of expressed mRNA in the absence of chemical substance” value (yeast gene YKL003C) was 1.1 and the “The level of expressed mRNA in the presence of chemical substance/The level of expressed mRNA in the absence of chemical substance” value (yeast gene YKL016C) was 1.5. For the same substance, the “The level of expressed mRNA in the presence of chemical substance/The level of expressed mRNA in the absence of chemical substance” value (yeast gene YKL141W) was 1.6, the “The level of expressed mRNA in the presence of chemical substance/The level of expressed mRNA in the absence of chemical substance” value (yeast gene YKL142W) was 1.8 and the “The level of expressed mRNA in the presence of chemical substance/The level of expressed mRNA in the absence of chemical substance” value (yeast gene YKL148C) was 0.9. For the same substance, the “The level of expressed mRNA in the presence of chemical substance/The level of expressed mRNA in the absence of chemical substance” value (yeast gene YKL170W) was 1.0, the “The level of expressed mRNA in the presence of chemical substance/The level of expressed mRNA in the absence of chemical substance” value (yeast gene YKL194C) was 0.9 and the “The level of expressed mRNA in the presence of chemical substance/The level of expressed mRNA in the absence of chemical substance” value (yeast gene YKR066C) was 0.9. For the same substance, the “The level of expressed mRNA in the presence of chemical substance/The level of expressed mRNA in the absence of chemical substance” value (yeast gene YLL041C) was 1.1, the “The level of expressed mRNA in the presence of chemical substance/The level of expressed mRNA in the absence of chemical substance” value (yeast gene YLR038C) was 2.3 and the “The level of expressed mRNA in the presence of chemical substance/The level of expressed mRNA in the absence of chemical substance” value (yeast gene YLR259C) was 0.7. For the same substance, the “The level of expressed mRNA in the presence of chemical substance/The level of expressed mRNA in the absence of chemical substance” value (yeast gene YLR295C) was 1.4, the “The level of expressed mRNA in the presence of chemical substance/The level of expressed mRNA in the absence of chemical substance” value (yeast gene YLR304C) was 0.7 and the “The level of expressed mRNA in the presence of chemical substance/The level of expressed mRNA in the absence of chemical substance” value (yeast gene YLR348C) was 1.1. The “The level of expressed mRNA in the presence of chemical substance/The level of expressed mRNA in the absence of chemical substance” value (yeast gene YLR395C) was 1.8, the “The level of expressed mRNA in the presence of chemical substance/The level of expressed mRNA in the absence of chemical substance” value (yeast gene YML054C) was 1.5 and the “The level of expressed mRNA in the presence of chemical substance/The level of expressed mRNA in the absence of chemical substance” value (yeast gene YML120C) was 1.1. For the same substance, the “The level of expressed mRNA in the presence of chemical substance/The level of expressed mRNA in the absence of chemical substance” value (yeast gene YML129C) was 1.1, the “The level of expressed mRNA in the presence of chemical substance/The level of expressed mRNA in the absence of chemical substance” value (yeast gene YMR023C) was 1.4 and the “The level of expressed mRNA in the presence of chemical substance/The level of expressed mRNA in the absence of chemical substance” value (yeast gene YMR035W) was 1.2. The “The level of expressed mRNA in the presence of chemical substance/The level of expressed mRNA in the absence of chemical substance” value (yeast gene YMR083W) was 1.4, the “The level of expressed mRNA in the presence of chemical substance/The level of expressed mRNA in the absence of chemical substance” value (yeast gene YMR089C) was 0.8 and the “The level of expressed mRNA in the presence of chemical substance/The level of expressed mRNA in the absence of chemical substance” value (yeast gene YMR152W) was 0.9. The “The level of expressed mRNA in the presence of chemical substance/The level of expressed mRNA in the absence of chemical substance” value (yeast gene YMR203W) was 0.8, the “The level of expressed mRNA in the presence of chemical substance/The level of expressed mRNA in the absence of chemical substance” value (yeast gene YMR267W) was 0.8 and the “The level of expressed mRNA in the presence of chemical substance/The level of expressed mRNA in the absence of chemical substance” value (yeast gene YNL055C) was 1.1. For the same substance, the “The level of expressed mRNA in the presence of chemical substance/The level of expressed mRNA in the absence of chemical substance” value (yeast gene YNL071W) was 0.9, the “The level of expressed mRNA in the presence of chemical substance/The level of expressed mRNA in the absence of chemical substance” value (yeast gene YNL073W) was 0.8 and the “The level of expressed mRNA in the presence of chemical substance/The level of expressed mRNA in the absence of chemical substance” value (yeast gene YNL104C) was 1.1. The “The level of expressed mRNA in the presence of chemical substance/The level of expressed mRNA in the absence of chemical substance” value (yeast gene YNL256W) was 0.7, the “The level of expressed mRNA in the presence of chemical substance/The level of expressed mRNA in the absence of chemical substance” value (yeast gene YOL096C) was 1.1 and the “The level of expressed mRNA in the presence of chemical substance/The level of expressed mRNA in the absence of chemical substance” value (yeast gene YOR020C) was 1.4. For the same substance, the “The level of expressed mRNA in the presence of chemical substance/The level of expressed mRNA in the absence of chemical substance” value (yeast gene YOR037W) was 1.0, the “The level of expressed mRNA in the presence of chemical substance/The level of expressed mRNA in the absence of chemical substance” value (yeast gene YOR100C) was 1.3 and the “The level of expressed mRNA in the presence of chemical substance/The level of expressed mRNA in the absence of chemical substance” value (yeast gene YOR130C) was 0.8. For the same substance, the “The level of expressed mRNA in the presence of chemical substance/The level of expressed mRNA in the absence of chemical substance” value (yeast gene YOR142W) was 1.0, the “The level of expressed mRNA in the presence of chemical substance/The level of expressed mRNA in the absence of chemical substance” value (yeast gene YOR150W) was 1.7 and the “The level of expressed mRNA in the presence of chemical substance/The level of expressed mRNA in the absence of chemical substance” value (yeast gene YOR176W) was 0.7. The “The level of expressed mRNA in the presence of chemical substance/The level of expressed mRNA in the absence of chemical substance” value (yeast gene YOR187W) was 1.0, the “The level of expressed mRNA in the presence of chemical substance/The level of expressed mRNA in the absence of chemical substance” value (yeast gene YOR316C) was 0.7 and the “The level of expressed mRNA in the presence of chemical substance/The level of expressed mRNA in the absence of chemical substance” value (yeast gene YPL040C) was 1.1. For the same substance, the “The level of expressed mRNA in the presence of chemical substance/The level of expressed mRNA in the absence of chemical substance” value (yeast gene YPL134C) was 1.5, the “The level of expressed mRNA in the presence of chemical substance/The level of expressed mRNA in the absence of chemical substance” value (yeast gene YPL135W) was 0.9 and the “The level of expressed mRNA in the presence of chemical substance/The level of expressed mRNA in the absence of chemical substance” value (yeast gene YPL215W) was 1.1. For the same substance, the “The level of expressed mRNA in the presence of chemical substance/The level of expressed mRNA in the absence of chemical substance” value (yeast gene YPL262W) was 1.0, the “The level of expressed mRNA in the presence of chemical substance/The level of expressed mRNA in the absence of chemical substance” value (yeast gene YPR024W) was 0.7 and the “The level of expressed mRNA in the presence of chemical substance/The level of expressed mRNA in the absence of chemical substance” value (yeast gene YPR037C) was 1.2. For the same substance, the “The level of expressed mRNA in the presence of chemical substance/The level of expressed mRNA in the absence of chemical substance” value (yeast gene YPR047W) was 1.0 and the “The level of expressed mRNA in the presence of chemical substance/The level of expressed mRNA in the absence of chemical substance” value (yeast gene YPR134W) was 1.1.
